Strand notation (5' to 3'): a small letter for the sugar, then the base; units joined by * are phosphorothioate-linked, units joined directly phosphodiester-linked; [ ] holds rarer units or linkages, { } end groups; capitals alone tell only the bases. e = 2'-O-(2-methoxyethyl) (MOE); [5mC] = 5-methylcytosine; d = 2'-deoxy (DNA)

In this series the test system is JNK2 mRNA. In words: Northern assay of JNK2 mRNA expression in A549 cells. To be noted: for % EXPRESSION: relative to LIPOFECTIN-only control. It counts as cell-based, human. The protocol: In order to evaluate the activity of potential JNK-modulating oligonucleotides, human lung carcinoma cell line A549 (American Type Culture Collection, Rockville, Md. No. ATCC CCL-185) cells or other cell lines as indicated in the Examples, were grown and treated with oligonucleotides or control solutions as detailed below. After harvesting, cellular extracts were prepared and examined for specific JNK mRNA levels or JNK protein levels (i.e., Northern or Western assays, respectively). In all cases, “% expression” refers to the amount of JNK-specific signal in an oligonucleotide-treated cell relative to an untreated cell (or a cell treated with a control solution that lacks oligonucleotide), and “% inhibition” is calculated as
100%−% Expression =% Inhibition.
Northern Assays: The mRNA expression of each JNK protein was determined by using a nucleic acid probe specifically hybridizable thereto. Nucleic acid probes specific for JNK1, JNK2 and JNK3 are described in Examples 3, 4 and 5, respectively. The probes were radiolabelled by means well known in the art (see, e.g., Short Protocols in Molecular Biology, 2nd Ed., Ausubel et al., Eds., John Wiley & Sons, New York, 1992, pages 3-11 to 2-3-44 and 4-17 to 4-18; Ruth, Chapter 6 In: Methods in Molecular Biology, Vol. 26: Protocols for Oligonucleotide Conjugates, Agrawal, ed., Humana Press Inc., Totowa, N.J., 1994, pages 167-185; and Chapter 10 In: Molecular Cloning: A Laboratory Manual, 2nd Ed., Sambrook et al., Eds., pages 10.1-10.70). The blots were stripped and reprobed with a ^32P-labeled glyceraldehyde 3-phosphate dehydrogenase (G3PDH) probe (Clontech Laboratories, Inc., Palo Alto, Calif.) in order to confirm equal loading of RNA and to allow the levels of JNK transcripts to be normalized with regard to the G3PDH signals.
A549 cells were grown in T-75 flasks until 80-90% confluent. At this time, the cells were washed twice with 10 mL of media (DMEM), followed by the addition of 5 mL of DMEM containing 20 μg/mL of LIPOFECTIN™ (i.e., 1:1 (w/w) DOTMA/DOPE, Life Technologies, Gaithersburg, Md.; DOTMA=N-[1-(2,3-dioleyoxy)propyl]-N,N,N-trimethylammonium chloride; DOPE=dioleoyl phosphatidylethanolamine). The oligonucleotides were added from a 10 μM stock solution to a final concentration of 400 nM, and the two solutions were mixed by swirling the flasks. As a control, cells were treated with LIPOFECTIN™ without oligonucleotide under the same conditions and for the same times as the oligonucleotide-treated samples. After 4 hours at 37° C., the medium was replaced with fresh DMEM containing 10% serum. The cells were allowed to recover for 18 hours. Total cellular RNA was then extracted in guanidinium, subject to gel electrophoresis and transferred to a filter according to techniques known in the art (see, e.g., Chapter 7 In: Molecular Cloning: A Laboratory Manual, 2nd Ed., Sambrook et al., Eds., pages 7.1-7.87, and Short Protocols in Molecular Biology, 2nd Ed., Ausubel et al., Eds., John Wiley & Sons, New York, 1992, pages 2-24 to 2-30 and 4-14 to 4-29). Filters were typically hybridized overnight to a probe specific for the particular JNK gene of interest in hybridization buffer (25 mM KPO4, pH 7.4; 5×SSC; 5× Denhardt's solution, 100 μg/ml Salmon sperm DNA and 50% formamide) (Alahari et al., Nucl. Acids Res., 1993, 21, 4079). This was followed by two washes with 1×SSC, 0.1% SDS and two washes with 0.25×SSC, 0.1% SDS. Hybridizing bands were visualized by exposure to X-OMAT AR film and quantitated using a PHOSPHORIMAGER™ essentially according to the manufacturer's instructions (Molecular Dynamics, Sunnyvale, Calif.)
B. JNK2-specific probes: In initial screenings of a set of oligonucleotides derived from the JNK2 sequence (Table 9) for biological activity, a cDNA clone of JNK2 (Kallunki et al., Genes & Development, 1994, 8, 2996) was radiolabeled and used as a JNK2-specific probe in Northern blots. […]

The mark [1] stands for this setting: JNK2 mRNA, A549 cells, 400 nM oligonucleotide.
The mark [2] stands for this setting: JNK2 mRNA dose response, 100 nM.
Where [3] appears, read: JNK2 mRNA dose response, 200 nM.
The mark [4] stands for this setting: JNK2 mRNA dose response, 400 nM.
The mark [5] stands for this setting: JNK2 mRNA time course, t=0 h after 4 hour treatment.
The mark [6] stands for this setting: JNK2 mRNA, chemically modified oligonucleotides, dose 100 nM.
Setting [7] is: JNK2 mRNA, chemically modified oligonucleotides, dose 400 nM.
[8] abbreviates: JNK2 mRNA, A549 cells, 400 nM oligonucleotide, 100% - % expression.

For the substance “12558 (antisense dG*dT*dT*dT*dC*dA*dG*dA*dT*dC*dC*dC*dT*dC*dG*dC*dC*dC*dG*dC) [compound 12558]”, the “% EXPRESSION” value under setting [1] is given as 15%.

In the case of “12559 (antisense dT*dG*dC*dA*dG*dC*dA*dC*dA*dA*dA*dC*dA*dA*dT*dC*dC*dC*dT*dT) [compound 12559]”, under setting [1], the “% EXPRESSION” value was determined as 28%.

Turning to “12560 (antisense GTCCGGGCCAGGCCAAAGTC; DNA, all phosphorothioate, methylation of C not given here) [compound 12560]”, the “Normalized % Control” value is 68.1% (JNK2 mRNA dose response, 50 nM); 50.0% under setting [2]; 25.1% under setting [3]; 14.2% under setting [4]; 20.2% under setting [5]; 11.1% (JNK2 mRNA time course, t=4 h). In addition, the “Normalized % Control” value is, setting by setting: (JNK2 mRNA time course, t=12 h) 21.8%; (JNK2 mRNA time course, t=48 h) 42.7%; (JNK2 mRNA time course, t=72 h) 116.8%; under setting [6], 62.1%; under setting [7], 31.4%. For the same substance, the “% INHIBITION” value was 79.8% under setting [5]; 88.9% (JNK2 mRNA time course, t=4 h); 78.2% (JNK2 mRNA time course, t=12 h); 57.3% (JNK2 mRNA time course, t=48 h); “(0.0) %” (JNK2 mRNA time course, t=72 h). Besides, under setting [1], the “% EXPRESSION” value worked out at 11%.

As for “12561 (antisense dC*dA*dG*dG*dA*dT*dG*dA*dC*dT*dT*dC*dG*dG*dG*dC*dG*dC*dC*dC) [compound 12561]”, the “% EXPRESSION” value under setting [1] came to 60%. For the same substance, under setting [8], the “% INHIBITION” value turned out to be 40%.

For “12562 (antisense dG*dC*dT*dC*dT*dC*dC*dC*dA*dT*dG*dA*dT*dG*dC*dA*dA*dC*dC*dC) [compound 12562]”, the “% EXPRESSION” value under setting [1] was determined as 89%. Moreover, the “% INHIBITION” value under setting [8] came out at 11%.

As for “12563 (antisense dA*dT*dG*dG*dG*dT*dG*dA*dC*dG*dC*dA*dG*dA*dG*dC*dT*dT*dC*dG) [compound 12563]”, under setting [1], the “% EXPRESSION” value was 22%.

On to “12564 (antisense dC*dT*dG*dC*dT*dG*dC*dA*dT*dC*dT*dG*dA*dA*dG*dG*dC*dT*dG*dA) [compound 12564]”, for which the “% EXPRESSION” value under setting [1] is 28%.

Take “12565 (antisense dT*dG*dA*dG*dA*dA*dG*dG*dA*dG*dT*dG*dG*dC*dG*dT*dT*dG*dC*dT) [compound 12565]”: under setting [1], the “% EXPRESSION” value turned out to be 19%.

“12566 (antisense dT*dG*dC*dT*dG*dT*dC*dT*dG*dT*dG*dT*dC*dT*dG*dA*dG*dG*dC*dC) [compound 12566]”: the “% EXPRESSION” value under setting [1] was 42%.

For the substance “12568 (antisense dC*dA*dT*dT*dT*dC*dA*dG*dG*dC*dC*dC*dA*dC*dG*dG*dA*dG*dG*dT) [compound 12568]”, the “% EXPRESSION” value under setting [1] is given as 20%.

With “12569 (antisense dG*dG*dT*dC*dT*dG*dA*dA*dT*dA*dG*dG*dG*dC*dA*dA*dG*dG*dC*dA) [compound 12569]”, under setting [1], the “% EXPRESSION” value turned out to be 13%.

As for “12570 (antisense dG*dG*dG*dC*dA*dA*dG*dT*dC*dC*dA*dA*dG*dC*dA*dA*dG*dC*dA*dT) [compound 12570]”, under setting [1], the “% EXPRESSION” value is 24%.

With “14318 (sense GACTTTGGCCTGGCCCGGAC; DNA, all phosphorothioate, methylation of C not given here) [compound 14318]”, the “Normalized % Control” value (JNK2 mRNA dose response, 50 nM) came out at 87.1%; the “Normalized % Control” value under setting [2] was determined as 89.8%; the “Normalized % Control” value under setting [3] stood at 92.1%; the “Normalized % Control” value under setting [4] is 99.6%.

As for “14319 (GTGCGCGCGAGCCCGAAATC; DNA, all phosphorothioate, methylation of C not given here) [compound 14319]”, the “Normalized % Control” value (JNK2 mRNA dose response, 50 nM) turned out to be 90.4%; the “Normalized % Control” value under setting [2] stood at 93.7%; the “Normalized % Control” value under setting [3] was found to be 110.2%; the “Normalized % Control” value under setting [4] worked out at 100.0%.

For “15352 (antisense eG*eT*e[5mC]*e[5mC]*eG*eG*eG*e[5mC]*e[5mC]*eA*eG*eG*e[5mC]*e[5mC]*eA*eA*eA*eG*eT*e[5mC]) [compound 15352]”, the “Normalized % Control” value was determined as 132.4% under setting [6] and 158.4% under setting [7].

As to “15354 (antisense eGeTe[5mC]e[5mC]eG*dG*dG*dC*dC*dA*dG*dG*dC*dC*eAeAeAeGeTe[5mC]) [compound 15354]”, the “Normalized % Control” value under setting [6] stood at 38.3% and the “Normalized % Control” value under setting [7] is 17.1%. Also, the “inhibition of JNK2 mRNA expression” value (chemically modified derivatives of ISIS 12560, 400 nM (text to Table 12)) is “approximately 80%”.

Take “15355 (antisense eG*eT*e[5mC]*e[5mC]*eG*eG*eG*e[5mC]*e[5mC]*eA*eG*dG*dC*dC*dA*dA*dA*dG*dT*dC) [compound 15355]”: the “Normalized % Control” value worked out at 61.3% under setting [6] and 29.1% under setting [7].

As for “15356 (antisense dG*dT*dC*dC*dG*dG*dG*dC*dC*eA*eG*eG*e[5mC]*e[5mC]*eA*eA*eA*eG*eT*e[5mC]) [compound 15356]”, the “Normalized % Control” value by setting is: under setting [6], 38.6%; under setting [7], 11.0%.

With “15357 (antisense GTCCGGGCCAGGCCAAAGTC; wingmer: 5' deoxy phosphorothioate wing, 3' MOE phosphodiester wing, wing lengths not given here) [compound 15357]”, the “Normalized % Control” value runs as follows: under setting [6], 42.8%; under setting [7], 13.7%.

On to “15358 (antisense eGeTe[5mC]e[5mC]eGeGeGe[5mC]e[5mC]eAeG*dG*dC*dC*dA*dA*dA*dG*dT*e[5mC]) [compound 15358]”, for which the “Normalized % Control” value reads like this: under setting [6], 47.4%; under setting [7], 29.4%.

For “GTC-CGG-GCC-AGG-CCA-AAG-TC (GTCCGGGCCAGGCCAAAGTC; chemistry not given here) [ISIS 12560]”, the “% INHIBITION” value is reported as “greater than or equal to 80%” (JNK2 mRNA time course, t=12 h) and “greater than or equal to 60%” (JNK2 mRNA time course, t=48 h).
